From publication PMC8286840, “Identifying SARS-CoV-2 antiviral compounds by screening for small molecule inhibitors of Nsp3 papain-like protease” (Biochemical Journal, 2021)
Where a name gives a salt, the structure may show the parent alone. Read-outs that look alike come from different tables or passages of the source.

Key:
[1] = target: T1, SARS-CoV-2 PLpro (nsp3 1564–1878) (Severe acute respiratory syndrome coronavirus 2, UniProt P0DTD1); test: biochemical; set-up: FRET-quenched peptide (Pro3) cleavage by PLpro, 10 min pre-incubation, slope over 20 min, normalised to no-compound control; conditions: read-out: % of control remaining
[2] = target: T1, SARS-CoV-2 PLpro (nsp3 1564–1878); test: biochemical; set-up: FRET-quenched peptide (Pro3) cleavage by PLpro, 10 min pre-incubation, slope over 20 min, normalised to no-compound control; conditions: read-out: % of control remaining; remark: listed apart in the source

`O=C1NC(=O)c2c1c1c3ccccc3n3c1c1c2c2ccccc2n1[C@H]1CC[C@@H]3O1` [SB 218078] gave a remaining activity at 3.75 µM ([1]; Well no.=2648, high concentration screen) of 94.3% and a remaining activity at 1.25 µM ([2]; Well no.=2648, low concentration screen) of 92.1%.
For `CCCCCNC(=N)N/N=C/c1c[nH]c2ccc(OC)cc12` [Tegaserod (maleate)], the remaining activity at 3.75 µM ([1]; Well no.=6615, high concentration screen) was 104% and the remaining activity at 1.25 µM ([2]; Well no.=6615, low concentration screen) was 103%.
For `Cc1c[nH]c(=O)[nH]c1=O` [Thymine], the remaining activity at 3.75 µM ([1]; Well no.=6629, high concentration screen) was 108% and the remaining activity at 1.25 µM ([2]; Well no.=6629, low concentration screen) was 103%.
Work on `O=C(CCCN1CCC2(CC1)C(=O)NCN2c1ccccc1)c1ccc(F)cc1` [Spiperone hydrochloride] yielded a remaining activity at 3.75 µM ([1]; Well no.=1268, high concentration screen) of 105% and a remaining activity at 1.25 µM ([2]; Well no.=1268, low concentration screen) of 105%.
Work on `C[C@H]1O[C@@H](n2cc(F)c(=O)[nH]c2=O)[C@H](O)[C@@H]1O` [5-fluoro-5'-deoxyuridine] yielded a remaining activity at 3.75 µM ([1]; Well no.=663, high concentration screen) of 98.8% and a remaining activity at 1.25 µM ([2]; Well no.=663, low concentration screen) of 102%.
`COc1ccccc1N1CCN(CCN2C(=O)CC3(CCCC3)CC2=O)CC1` [BMY 7378 dihydrochloride] was tested, and the remaining activity at 3.75 µM ([1]; Well no.=229, high concentration screen) was 100% and the remaining activity at 1.25 µM ([2]; Well no.=229, low concentration screen) was 98.4%.
Compound `NCCCC(N)(C(=O)O)C(F)F` (stereo not drawn) [Eflornithine hydrochloride hydrate] has a remaining activity at 3.75 µM ([1]; Well no.=8636, high concentration screen) of 95.7% and a remaining activity at 1.25 µM ([2]; Well no.=8636, low concentration screen) of 104%.
`NCCc1ccc(O)c(O)c1` [Dopamine hydrochloride] showed a remaining activity at 3.75 µM ([1]; Well no.=518, high concentration screen) of 99.9% and a remaining activity at 1.25 µM ([2]; Well no.=518, low concentration screen) of 102%.
Work on `CC(C)Oc1cccnc1N(C)C1CCN(Cc2ccc(I)cc2)CC1` [RBI-257 maleate] yielded a remaining activity at 3.75 µM ([1]; Well no.=1402, high concentration screen) of 105% and a remaining activity at 1.25 µM ([2]; Well no.=1402, low concentration screen) of 103%.
For `CN(C(=O)OCC1c2ccccc2-c2ccccc21)[C@@H](Cc1ccccc1)C(=O)O` [Fmoc-N-Me-Phe-OH], the remaining activity at 3.75 µM ([1]; Well no.=7888, high concentration screen) was 102% and the remaining activity at 1.25 µM ([2]; Well no.=7888, low concentration screen) was 101%.
`Cc1cc(N2CCN([C@@H]3CN[C@H](C(=O)N4CCSC4)C3)CC2)n(-c2ccccc2)n1` [Teneligliptin hydrobromide] was tested, and the remaining activity at 3.75 µM ([1]; Well no.=8110, high concentration screen) was 106% and the remaining activity at 1.25 µM ([2]; Well no.=8110, low concentration screen) was 107%.
`CCOc1ccc(-n2c([C@@H](C)N(Cc3cccnc3)C(=O)Cc3ccc(OC(F)(F)F)cc3)nc3ncccc3c2=O)cc1` [AMG 487] gave a remaining activity at 3.75 µM ([1]; Well no.=8651, high concentration screen) of 97.8% and a remaining activity at 1.25 µM ([2]; Well no.=8651, low concentration screen) of 101%.
With `Cc1ncc([N+](=O)[O-])n1CC(C)O` (stereo not drawn) [Secnidazole] the remaining activity at 3.75 µM ([1]; Well no.=2247, high concentration screen) was 97.7% and the remaining activity at 1.25 µM ([2]; Well no.=2247, low concentration screen) was 99.7%.
Work on `CNc1ccc2oc(C[C@H]3O[C@@]4(CC[C@H]3C)O[C@H]([C@H](C)C(=O)c3ccc[nH]3)[C@H](C)C[C@H]4C)nc2c1C(=O)O` [Antibiotic A-23187] yielded a remaining activity at 3.75 µM ([1]; Well no.=3079, high concentration screen) of 104% and a remaining activity at 1.25 µM ([2]; Well no.=3079, low concentration screen) of 103%.
`Nc1nonc1C(=Nc1ccc(F)c(Cl)c1)NO` [IDO5L] showed a remaining activity at 3.75 µM ([1]; Well no.=8263, high concentration screen) of 103% and a remaining activity at 1.25 µM ([2]; Well no.=8263, low concentration screen) of 107%.
`COc1ccc(-c2cc(=S)ss2)cc1` [Anethole-trithione] was tested, and the remaining activity at 3.75 µM ([1]; Well no.=1856, high concentration screen) was 92.4% and the remaining activity at 1.25 µM ([2]; Well no.=1856, low concentration screen) was 91.9%.
With `Cc1ccc(C(=O)N(CCCN)[C@@H](c2oc3cc(Cl)ccc3c(=O)c2Cc2ccccc2)C(C)C)cc1` [SB 743921] the remaining activity at 3.75 µM ([1]; Well no.=4812, high concentration screen) was 100% and the remaining activity at 1.25 µM ([2]; Well no.=4812, low concentration screen) was 97.2%.
`CC(C)(C)n1nc(-c2cccc3ccccc23)c2c(N)ncnc21` [1-Naphthyl PP1 - 1-(1,1-Dimethylethyl)-3-(1-naphthalenyl)-1H-pyrazolo[3,4-d]pyrimidin-4-amine] was tested, and the remaining activity at 3.75 µM ([1]; Well no.=2674, high concentration screen) was 98.4% and the remaining activity at 1.25 µM ([2]; Well no.=2674, low concentration screen) was 98%.
`c1ccc(CNCc2ccc(CN3CCCNCCNCCCNCC3)cc2)nc1` [AMD 3465 (hexahydrobromide)] showed a remaining activity at 3.75 µM ([1]; Well no.=7245, high concentration screen) of 87.4%, a remaining activity at 3.75 µM ([1]; Well no.=8419, high concentration screen) of 92.2% and a remaining activity at 1.25 µM ([2]; Well no.=7245, low concentration screen) of 90.9%. It also gave a remaining activity at 1.25 µM ([2]; Well no.=8419, low concentration screen) of 98.5%.
In the case of `CC1(C)[C@@H](O)C[C@H]2[C@](C)(O)[C@@H]3CC[C@@H]4[C@@H](O)[C@@]3(C[C@@H](O)[C@@]21O)C[C@@]4(C)O` [Grayanotoxin III], the remaining activity at 3.75 µM [1] was 104% and the remaining activity at 1.25 µM [2] was 103%.
`CCn1cc(C(=O)O)c(=O)c2ccc(C)nc21` [Nalidixic acid] was tested, and the remaining activity at 3.75 µM ([1]; Well no.=3256, high concentration screen) was 99.3% and the remaining activity at 1.25 µM ([2]; Well no.=3256, low concentration screen) was 99.8%.
Compound `CC(=O)OCC(CCn1cnc2cnc(N)nc21)COC(C)=O` [Famciclovir] has a remaining activity at 3.75 µM ([1]; Well no.=2074, high concentration screen) of 104% and a remaining activity at 1.25 µM ([2]; Well no.=2074, low concentration screen) of 101%.
`CS(=O)(=O)c1ccc(-c2cnc(N)c(C(=O)Nc3ccccc3)n2)cc1` [VE-821] was tested, and the remaining activity at 3.75 µM ([1]; Well no.=4790, high concentration screen) was 96.4% and the remaining activity at 1.25 µM ([2]; Well no.=4790, low concentration screen) was 97.8%.
Compound `CCCCc1ccc(NC(C)=O)c(C)c1` [SMIP004] has a remaining activity at 3.75 µM ([1]; Well no.=6972, high concentration screen) of 98.7% and a remaining activity at 1.25 µM ([2]; Well no.=6972, low concentration screen) of 101%.
For `O=C(O)Cc1ccc(O)c(O)c1` [3,4-Dihydroxyphenylacetic acid], the remaining activity at 3.75 µM ([1]; Well no.=442, high concentration screen) was 104% and the remaining activity at 1.25 µM ([2]; Well no.=442, low concentration screen) was 103%.
`C[C@]12CCC(=O)C=C1[C@@H]1C[C@@H]1[C@H]1[C@@H]3[C@@H]4C[C@@H]4[C@@]4(CCC(=O)O4)[C@@]3(C)CC[C@@H]12` [Drospirenone] was tested, and the remaining activity at 3.75 µM ([1]; Well no.=5235, high concentration screen) was 102% and the remaining activity at 1.25 µM ([2]; Well no.=5235, low concentration screen) was 99.4%.
`CC(NC(C)(C)C)C(=O)c1cccc(Cl)c1` (stereo not drawn) [Bupropion hydrochloride] was tested, and the remaining activity at 3.75 µM ([1]; Well no.=37, high concentration screen) was 100% and the remaining activity at 1.25 µM ([2]; Well no.=37, low concentration screen) was 101%.
For `CC(=O)c1c(C)c2cnc(Nc3ccc(N4CCNCC4)cn3)nc2n(C2CCCC2)c1=O` [PD 0332991 (Palbociclib) Isethionate], the remaining activity at 3.75 µM ([1]; Well no.=4882, high concentration screen) was 101% and the remaining activity at 1.25 µM ([2]; Well no.=4882, low concentration screen) was 101%.
`CCOc1cc(N2CCC(O)CC2)ccc1Nc1ncc2c(n1)N(C)c1ccccc1C(=O)N2C` [XMD8-92] was tested, and the remaining activity at 3.75 µM ([1]; Well no.=5565, high concentration screen) was 95.2% and the remaining activity at 1.25 µM ([2]; Well no.=5565, low concentration screen) was 93.8%.
Work on `O=C(Nc1cccc(C(=O)Nc2ccc(S(=O)(=O)O)c3cc(S(=O)(=O)O)cc(S(=O)(=O)O)c23)c1)Nc1cccc(C(=O)Nc2ccc(S(=O)(=O)O)c3cc(S(=O)(=O)O)cc(S(=O)(=O)O)c23)c1` [NF 023] yielded a remaining activity at 3.75 µM ([1]; Well no.=813, high concentration screen) of 89.2% and a remaining activity at 1.25 µM ([2]; Well no.=813, low concentration screen) of 88.1%.
`CNC(=O)[C@H]1O[C@@H](n2cnc3c(N)ncnc32)[C@H](O)[C@@H]1O` [5'-N-Methyl carboxamidoadenosine] gave a remaining activity at 3.75 µM ([1]; Well no.=14, high concentration screen) of 98% and a remaining activity at 1.25 µM ([2]; Well no.=14, low concentration screen) of 101%.
In the case of `Oc1ccc(-c2nc(-c3ccc(F)cc3)c(-c3ccncc3)[nH]2)cc1` [SB 202190 - 4-[4-(4-Fluorophenyl)-5-(4-pyridinyl)-1H-imidazol-2-yl]phenol], the remaining activity at 3.75 µM ([1]; Well no.=2380, high concentration screen) was 94.8% and the remaining activity at 1.25 µM ([2]; Well no.=2380, low concentration screen) was 96.6%.
Compound `CC[C@H](C)[C@H](N)C(=O)N1CCC[C@H]1C(=O)N[C@H](C(=O)O)[C@@H](C)CC` [Diprotin A (TFA)] has a remaining activity at 3.75 µM ([1]; Well no.=8464, high concentration screen) of 101% and a remaining activity at 1.25 µM ([2]; Well no.=8464, low concentration screen) of 104%.
In the case of `O=S(=O)(O)c1cc(O)ccc1O` [Ethamsylate], the remaining activity at 3.75 µM ([1]; Well no.=6763, high concentration screen) was 89.6% and the remaining activity at 1.25 µM ([2]; Well no.=6763, low concentration screen) was 103%.
Compound `C[C@@H]1OC(=O)[C@H]2C[C@H]3CCCC[C@@H]3[C@@H](/C=C/[C@H]3CCC[C@H](C)N3C)[C@@H]12` [(+)-Himbacine] has a remaining activity at 3.75 µM ([1]; Well no.=706, high concentration screen) of 98.4% and a remaining activity at 1.25 µM ([2]; Well no.=706, low concentration screen) of 99.2%.
